According to patent US20220169628A1 (University of Florida Research Foundation, Incorporated, priority 2019, published 2022):

Columns and labels:
MOLT-4 cells = assay: Cell viability assay, MTS, 72 h, MOLT-4; type: cell-based; details: Homo sapiens; MOLT-4 cells, 72 h, MTS
Protocol: (§1) Cancer cells from different tissue origins including acute lymphoblastic leukemia (MOLT4 and RS4; 11), small cell lung cancer (NCI-H146 or simply H146), and multiple myeloma (EJM and H929) were incubated with increasing concentrations of Examples 1-21 or ABT-263 for 72 h. Cell viability was measured by tetrazolium-based MTS assay. 5×10^4 to 1×10^5 suspension cells or 3×10^3 to 5×10^3 adherent cells were seeded and treated in 96-well plates for 72 h. The EC50 values of individual agents were calculated with GraphPad Prism.

RS4 cells = assay: Cell viability assay, MTS, 72 h, RS4;11; type: cell-based; details: Homo sapiens
Protocol: as §1

Row | Compound | IC50 (MOLT-4 cells) | IC50 (RS4 cells)
1 | Cc1ncsc1-c1ccc([C@H](C)NC(=O)[C@@H]2C[C@@H](O)CN2C(=O)[C@@H](NC(=O)COCCOCCOCCOCCOC(=O)N2CCC(c3ccc(Cl)cc3)=C(CN3CCN(c4ccc(C(=O)NS(=O)(=O)c5ccc(N[C@H](CCN6CCOCC6)CSc6ccccc6)c(S(=O)(=O)C(F)(F)F)c5)cc4)CC3)C2)C(C)(C)C)cc1 [Compound 36, (S)-16-((2S,4R)-4-hydroxy-2-(((S)-1-(4-(4-methylthiazol-5-yl)phenyl)ethyl)carbamoyl)pyrrolidine-1-carbonyl)-17,17-dimethyl-14-oxo-3,6,9,12-tetraoxa-15-azaoctadecyl 4-(4-chlorophenyl)-5-((4-(4-(((4-(((R)-4-morpholino-1-(phenylthio)butan-2-yl)amino)-3-((trifluoromethyl)sulfonyl)phenyl)sulfonyl)carbamoyl)phenyl)piperazin-1-yl)methyl)-3,6-dihydropyridine-1(2H)-carboxylate] | 342 nM | 1750 nM
2 | Cc1ncsc1-c1ccc([C@H](C)NC(=O)[C@@H]2C[C@@H](O)CN2C(=O)[C@@H](NC(=O)CCCCC(=O)NCC2(C)CCC(c3ccc(Cl)cc3)=C(CN3CCN(c4ccc(C(=O)NS(=O)(=O)c5ccc(N[C@H](CCN6CCOCC6)CSc6ccccc6)c(S(=O)(=O)C(F)(F)F)c5)cc4)CC3)C2)C(C)(C)C)cc1 (stereo partly drawn) [Compound 49, N′-((4′-chloro-4-methyl-6-((4-(4-(((4-(((R)-4-morpholino-1-(phenylthio)butan-2-yl)amino)-3-((trifluoromethyl)sulfonyl)phenyl)sulfonyl)carbamoyl)phenyl)piperazin-1-yl)methyl)-2,3,4,5-tetrahydro-[1,1′-biphenyl]-4-yl)methyl)-N^6—((S)-1-((2S,4R)-4-hydroxy-2-(((S)-1-(4-(4-methylthiazol-5-yl)phenyl)ethyl)carbamoyl)pyrrolidin-1-yl)-3,3-dimethyl-1-oxobutan-2-yl)adipamide] | 340 nM | 303 nM
3 | Cc1ncsc1-c1ccc([C@H](C)NC(=O)[C@@H]2C[C@@H](O)CN2C(=O)[C@@H](NC(=O)CCCCCC(=O)NCC2(C)CCC(c3ccc(Cl)cc3)=C(CN3CCN(c4ccc(C(=O)NS(=O)(=O)c5ccc(N[C@H](CCN6CCOCC6)CSc6ccccc6)c(S(=O)(=O)C(F)(F)F)c5)cc4)CC3)C2)C(C)(C)C)cc1 (stereo partly drawn) [Compound 50, N^1-((4′-chloro-4-methyl-6-((4-(4-(((4-(((R)-4-morpholino-1-(phenylthio)butan-2-yl)amino)-3-((trifluoromethyl)sulfonyl)phenyl)sulfonyl)carbamoyl)phenyl)piperazin-1-yl)methyl)-2,3,4,5-tetrahydro-[1,1′-biphenyl]-4-yl)methyl)-N^7—((S)-1-((2S,4R)-4-hydroxy-2-(((S)-1-(4-(4-methylthiazol-5-yl)phenyl)ethyl)carbamoyl)pyrrolidin-1-yl)-3,3-dimethyl-1-oxobutan-2-yl)heptanediamide] | 187 nM | 99 nM
4 | Cc1ncsc1-c1ccc([C@H](C)NC(=O)[C@@H]2C[C@@H](O)CN2C(=O)[C@@H](NC(=O)CCCCCCC(=O)NCC2(C)CCC(c3ccc(Cl)cc3)=C(CN3CCN(c4ccc(C(=O)NS(=O)(=O)c5ccc(N[C@H](CCN6CCOCC6)CSc6ccccc6)c(S(=O)(=O)C(F)(F)F)c5)cc4)CC3)C2)C(C)(C)C)cc1 (stereo partly drawn) [Compound 51, N^1-((4′-chloro-4-methyl-6-((4-(4-(((4-(((R)-4-morpholino-1-(phenylthio)butan-2-yl)amino)-3-((trifluoromethyl)sulfonyl)phenyl)sulfonyl)carbamoyl)phenyl)piperazin-1-yl)methyl)-2,3,4,5-tetrahydro-[1,1′-biphenyl]-4-yl)methyl)-N^8—((S)-1-((2S,4R)-4-hydroxy-2-(((S)-1-(4-(4-methylthiazol-5-yl)phenyl)ethyl)carbamoyl)pyrrolidin-1-yl)-3,3-dimethyl-1-oxobutan-2-yl)octanediamide] | 142 nM | 47 nM
5 | Cc1ncsc1-c1ccc([C@H](C)NC(=O)[C@@H]2C[C@@H](O)CN2C(=O)[C@@H](NC(=O)CCCCCCCC(=O)NCC2(C)CCC(c3ccc(Cl)cc3)=C(CN3CCN(c4ccc(C(=O)NS(=O)(=O)c5ccc(N[C@H](CCN6CCOCC6)CSc6ccccc6)c(S(=O)(=O)C(F)(F)F)c5)cc4)CC3)C2)C(C)(C)C)cc1 (stereo partly drawn) [Compound 52, N^1-((4′-chloro-4-methyl-6-((4-(4-(((4-(((R)-4-morpholino-1-(phenylthio)butan-2-yl)amino)-3-((trifluoromethyl)sulfonyl)phenyl)sulfonyl)carbamoyl)phenyl)piperazin-1-yl)methyl)-2,3,4,5-tetrahydro-[1,1′-biphenyl]-4-yl)methyl)-N^9—((S)-1-((2S,4R)-4-hydroxy-2-(((S)-1-(4-(4-methylthiazol-5-yl)phenyl)ethyl)carbamoyl)pyrrolidin-1-yl)-3,3-dimethyl-1-oxobutan-2-yl)nonanediamide] | 124 nM | 43 nM
6 | Cc1ncsc1-c1ccc([C@H](C)NC(=O)[C@@H]2C[C@@H](O)CN2C(=O)[C@@H](NC(=O)CCCCCCCCCC(=O)NCC2(C)CCC(c3ccc(Cl)cc3)=C(CN3CCN(c4ccc(C(=O)NS(=O)(=O)c5ccc(N[C@H](CCN6CCOCC6)CSc6ccccc6)c(S(=O)(=O)C(F)(F)F)c5)cc4)CC3)C2)C(C)(C)C)cc1 (stereo partly drawn) [Compound 54, N^1-((4′-chloro-4-methyl-6-((4-(4-(((4-(((R)-4-morpholino-1-(phenylthio)butan-2-yl)amino)-3-((trifluoromethyl)sulfonyl)phenyl)sulfonyl)carbamoyl)phenyl)piperazin-1-yl)methyl)-2,3,4,5-tetrahydro-[1,1′-biphenyl]-4-yl)methyl)-N^11—((S)-1-((2S,4R)-4-hydroxy-2-(((S)-1-(4-(4-methylthiazol-5-yl)phenyl)ethyl)carbamoyl)pyrrolidin-1-yl)-3,3-dimethyl-1-oxobutan-2-yl)undecanediamide] | 74 nM | 19.4 nM
7 | Cc1ncsc1-c1ccc([C@H](C)NC(=O)[C@@H]2C[C@@H](O)CN2C(=O)[C@@H](NC(=O)CCCCCCCCCCC(=O)NCC2(C)CCC(c3ccc(Cl)cc3)=C(CN3CCN(c4ccc(C(=O)NS(=O)(=O)c5ccc(N[C@H](CCN6CCOCC6)CSc6ccccc6)c(S(=O)(=O)C(F)(F)F)c5)cc4)CC3)C2)C(C)(C)C)cc1 (stereo partly drawn) [Compound 55, N^1-((4′-chloro-4-methyl-6-((4-(4-(((4-(((R)-4-morpholino-1-(phenylthio)butan-2-yl)amino)-3-((trifluoromethyl)sulfonyl)phenyl)sulfonyl)carbamoyl)phenyl)piperazin-1-yl)methyl)-2,3,4,5-tetrahydro-[1,1′-biphenyl]-4-yl)methyl)-N^2—((S)-1-((2S,4R)-4-hydroxy-2-(((S)-1-(4-(4-methylthiazol-5-yl)phenyl)ethyl)carbamoyl)pyrrolidin-1-yl)-3,3-dimethyl-1-oxobutan-2-yl)dodecanediamide] | 111 nM | 96 nM
8 | Cc1ncsc1-c1ccc([C@H](C)NC(=O)[C@@H]2C[C@@H](O)CN2C(=O)[C@@H](NC(=O)CCCCCCCCCCCC(=O)NCC2(C)CCC(c3ccc(Cl)cc3)=C(CN3CCN(c4ccc(C(=O)NS(=O)(=O)c5ccc(N[C@H](CCN6CCOCC6)CSc6ccccc6)c(S(=O)(=O)C(F)(F)F)c5)cc4)CC3)C2)C(C)(C)C)cc1 (stereo partly drawn) [Compound 56, N^1-((4′-chloro-4-methyl-6-((4-(4-(((4-(((R)-4-morpholino-1-(phenylthio)butan-2-yl)amino)-3-((trifluoromethyl)sulfonyl)phenyl)sulfonyl)carbamoyl)phenyl)piperazin-1-yl)methyl)-2,3,4,5-tetrahydro-[1,1′-biphenyl]-4-yl)methyl)-N^13—((S)-1-((2S,4R)-4-hydroxy-2-(((S)-1-(4-(4-methylthiazol-5-yl)phenyl)ethyl)carbamoyl)pyrrolidin-1-yl)-3,3-dimethyl-1-oxobutan-2-yl)tridecanediamide] | 333 nM | 410 nM
9 | Cc1ncsc1-c1ccc([C@H](C)NC(=O)[C@@H]2C[C@@H](O)CN2C(=O)[C@@H](NC(=O)COCCOCCOCCOCC(=O)NCC2(C)CCC(c3ccc(Cl)cc3)=C(CN3CCN(c4ccc(C(=O)NS(=O)(=O)c5ccc(N[C@H](CCN6CCOCC6)CSc6ccccc6)c(S(=O)(=O)C(F)(F)F)c5)cc4)CC3)C2)C(C)(C)C)cc1 (stereo partly drawn) [Compound 59, N^1-((4′-chloro-4-methyl-6-((4-(4-(((4-(((R)-4-morpholino-1-(phenylthio)butan-2-yl)amino)-3-((trifluoromethyl)sulfonyl)phenyl)sulfonyl)carbamoyl)phenyl)piperazin-1-yl)methyl)-2,3,4,5-tetrahydro-[1,1′-biphenyl]-4-yl)methyl)-N^14—((S)-1-((2S,4R)-4-hydroxy-2-(((S)-1-(4-(4-methylthiazol-5-yl)phenyl)ethyl)carbamoyl)pyrrolidin-1-yl)-3,3-dimethyl-1-oxobutan-2-yl)-3,6,9,12-tetraoxatetradecanediamide] | 973 nM | 404 nM
10 | Cc1ncsc1-c1ccc([C@H](C)NC(=O)[C@@H]2C[C@@H](O)CN2C(=O)[C@@H](NC(=O)COCCOCCOCCOCCOCC(=O)NCC2(C)CCC(c3ccc(Cl)cc3)=C(CN3CCN(c4ccc(C(=O)NS(=O)(=O)c5ccc(N[C@H](CCN6CCOCC6)CSc6ccccc6)c(S(=O)(=O)C(F)(F)F)c5)cc4)CC3)C2)C(C)(C)C)cc1 (stereo partly drawn) [Compound 60, N^1-((4′-chloro-4-methyl-6-((4-(4-(((4-(((R)-4-morpholino-1-(phenylthio)butan-2-yl)amino)-3-((trifluoromethyl)sulfonyl)phenyl)sulfonyl)carbamoyl)phenyl)piperazin-1-yl)methyl)-2,3,4,5-tetrahydro-[1,1′-biphenyl]-4-yl)methyl)-N^17—((S)-1-((2S,4R)-4-hydroxy-2-(((S)-1-(4-(4-methylthiazol-5-yl)phenyl)ethyl)carbamoyl)pyrrolidin-1-yl)-3,3-dimethyl-1-oxobutan-2-yl)-3,6,9,12,15-pentaoxaheptadecanediamide] | 1410 nM | 758 nM
